Data: article PMC9138545, “Incorporation of Oxidized Phenylalanine Derivatives into Insulin Signaling Relevant Proteins May Link Oxidative Stress to Signaling Conditions Underlying Chronic Insulin Resistance” (Biomedicines, 2022)
Entries after “also recorded” stand apart in the source; their conditions may differ.

Columns and labels:
[1] = tested on: concomitant tumor growth; conditions: ref [42]; cited from earlier work
Source text: (§1) Furthermore, m- and o-Tyr may have a role beyond being markers ROS attack. […] For example, we have described that patients on renal replacement therapy show a connection between plasma levels of o-Tyr and erythropoietin (EPO) resistance. In a further set of experiments, m- and o-Tyr in ...

[2] = tested on: plants; conditions: ref [41]; cited from earlier work
Source text: as §1

[3] = tested on: IRS-1 (Tyr612); assay: Western blot, activating phosphorylation of IRS-1 (Tyr612); type: cell-based; conditions: n = 4–8; for insulin-induced IRS-1 phosphorylation: 400 nmol/L insulin, adipocytes, HEK cells, podocytes, macrophages; for basal IRS-1 phosphorylation: without insulin, cells grown on o- or m-Tyr medium
Experimental: (§2) Early passages of mouse embryo fibroblast (3T3-L1) (ATCC, Manassas, VA, US) were cultured in Dulbecco’s modified Eagle medium (DMEM, Sigma Aldrich, Budapest, Hungary, CAT number: D6046; Invitrogen, Waltham, MA, USA, CAT number: 41966-029) supplemented with 100 U/mL penicillin, 0.1 mg/mL streptomycin (Gibco, Budapest, Hungary, CAT number: 15070-063) and 10% heat-inactivated Fetal Bovine Serum (FBS, Gibco, CAT number: 16170-078), supplemented with 398 nM p-, m-, or o-Tyr (equimolar to the original p-Tyr content of the medium) purchased from Sigma (CAT number: para-Tyr: T8566, m-Tyr: T3629, o-Tyr: 93851). Media contained 25 or 5 mmol/L glucose (experiment dependent) pyruvate and L-glutamine. Cells were grown at 37 °C and 5% CO2. Adipocyte differentiation was achieved by DMEM supplemented with 10% FBS (Gibco, Csertex, Budapest, Hungary, CAT number: 10106-169) (FBS) and a […] insulin (Sigma Aldrich, Budapest, Hungary, CAT number: I 9278), […] isobuthylmethylxanthine (Sigma Aldrich, Budapest, Hungary, CAT number: I 5879), and 250 nmol/L dexamethasone (Sigma Aldrich, Budapest, Hungary, CAT number: 861871) containing cocktail. From day 4 onward, cultures were maintained in DMEM containing 1.5 μg/mL insulin and 10% FBS with a medium change every other day until experimental treatments were started. After 90% of the cell population reached the adipocyte phenotype, prior to all treatments, cells were incubated overnight in serum-deprived medium. Experimental treatment was performed in serum-deprived medium containing 200 or 400 nmol/L insulin, for 5 min.
(§3) The conditionally immortalized human podocyte cell line (provided by Moin Saleem, University of Bristol, UK) was cultured in RPMI1640 medium (R8756, Sigma Aldrich, Budapest, Hungary) supplemented with 10% heat-inactivated FBS (16170-078, Gibco, Budapest, Hungary), insulin-transferrin-selenium supplement (41400-045, Gibco), 100 U/mL penicillin, 0.1 mg/mL streptomycin (P4333, Sigma), and […] (equimolar to the original p-Tyr content of the medium) para-, meta-, or ortho-Tyr. The cells were grown at 33 °C 5% CO2, and when they reached 40–60% confluency they were transferred to 37 °C to differentiate. Following the thermoswitching, cells were kept on RPMI1640 medium containing 2% FBS, antibiotics, and different tyrosines. Before every treatment, cells were incubated in serum-deprived medium overnight.
(§4) HEK-293 immortalized cell line (ATCC, Manassas, VA, USA) of epithelial morphology and the J774A.1 mouse BALB/C monocyte-macrophage cell lines (91051511-1VL, Sigma Aldrich, Budapest, Hungary) were cultured in Petri dishes with a medium composed of Dulbecco’s modified Eagle’s medium (DMEM, Sigma Aldrich, Budapest, Hungary, CAT number: D6046, Invitrogen, CAT number: 41966-029), with a 10% heat-inactivated FBS supplementation (16170-078, Gibco), insulin-transferrin-selenium supplement (41400-045, Gibco, Budapest, Hungary,), 100 U/mL penicillin and 0.1 mg/mL streptomycin (P4333, Sigma) and 398 nM para (5 and 25 mmol/L), meta-, or ortho-Tyr (T8566, T3629, 93851, Sigma). Before treatment, cells were incubated in serum-deprived medium overnight as well. […]
(§5) The samples of lysates were vortexed and centrifuged (10 min, 13,000 rpm, at 4 °C). Protein content of the samples was determined by the Lowry method using bovine serum albumin as a standard. […]

[4] = tested on: Akt (Ser473); assay: Western blot, activating phosphorylation of Akt (Ser473); type: cell-based; conditions: n = 4–8; for insulin-induced Akt phosphorylation: 400 nmol/L insulin, adipocytes, HEK cells, podocytes, macrophages; for basal Akt phosphorylation: without insulin, cells grown on o- or m-Tyr medium
Experimental: as §2, §3, §4, §5

[5] = tested on: p-IRS-1 in podocytes; assay: Immunofluorescence of p-IRS-1 in insulin-treated podocytes; type: cell-based, human; conditions: 400 nmol/l insulin for 10 min; for p-IRS-1 intensity: vs. p-Tyr
Experimental: as §3
In a 6-well plate, 104 cells were cultured on glass coverslips washed with alcohol and dried under UV light. The podocyte cells were grown in RPMI1640 medium supplemented with 10% heat-inactivated FBS at 33 °C, 5% CO2. When they reached 60% confluence, the medium was changed to RPMI1640 medium containing 2% FBS and 112.05 nM of the different tyrosine isoforms, then the plates were transferred to 37 °C, 5% CO2 to allow the cells to differentiate. The different tyrosine isoforms were added to the maintenance medium. The cells were serum deprived overnight, then incubated with 400 nmol/l insulin for 10 min. After removal of the medium, the coverslips were washed twice with PBS. The cells were fixed at room temperature in 2% paraformaldehyde and 4% sucrose for 8 min, then permeabilized using 0.3% Trion X-100 in 1xPBS for 20 min and blocked in 2.5% BSA for 45 min [45]. The primary antibody was diluted in 1xPBS, and the cells were incubated in it for 60 min in humid conditions. The antibodies we used were mouse anti-WT1 antibody (H-1) (1:100, Santa Cruz Biotechnology, Dallas, TX, USA), chicken anti-vimentin antibody (1:100, Abcam), rabbit anti-glucose transporter GLUT4 antibody (1:100, Abcam, Cambridge, UK), mouse Insulin Receptor Substrate-1 antibody (1:100, Invitrogen, Waltham, MA, USA), and rabbit anti-phospho-Insulin Receptor Substrate-1 (pTyr612) antibody (1:10, Sigma). Coverslips were washed in PBS three times for 5 min in PBS and incubated in the fluorophore-conjugated secondary antibodies anti-goat, anti-chicken, secondary antibody Alexa fluor 647, anti-rabbit Alexa fluor 350, and anti-mouse Alexa Fluor 488 (1:10, Invitrogen) for 60 min. Samples were then washed in PBS three times for 5 min and mounted in Vectashield (Vector Laboratories). Images were taken with a Nikon Eclipse Ti2 microscope.

| SMILES | inhibition of concomitant tumor growth [1] | natural herbicide, plant growth [2] | insulin-induced IRS-1 phosphorylation [3] | basal IRS-1 phosphorylation [3] | insulin-induced Akt phosphorylation [4] | basal Akt phosphorylation [4] | membrane translocation of IRS-1 / p-IRS-1 [5] | p-IRS-1 intensity [5] | membrane translocation of IRS-1 / p-IRS-1 ([5]; listed as o-Ty) |
| --- | --- | --- | --- | --- | --- | --- | --- | --- | --- |
| N[C@@H](Cc1cccc(O)c1)C(=O)O [m-Tyr, meta-tyrosine] | involved in the inhibition of concomitant tumor growth | act as a natural herbicide and inhibit the growth of plants | could not be further raised by insulin treatment | either unchanged or higher | could not be further raised by insulin treatment | either unchanged or higher | absent; also recorded: not characteristic | lower | – |
| NC(Cc1ccccc1O)C(=O)O (stereo not drawn) [o-Tyr, ortho-tyrosine] | – | – | could not be further raised by insulin treatment | either unchanged or higher | could not be further raised by insulin treatment | either unchanged or higher | not characteristic | lower; also recorded: the signal almost disappears | absent |
